Patent US20170107185A1, “SUBSTITUTED [1,2,4]TRIAZOLE AND IMIDAZOLE COMPOUNDS AS FUNGICIDES” (BASF SE, priority 2014, published 2017)

What follows are compounds tested on Botrytis cinerea (assay: M1 Activity against the grey mold Botrytis cinerea in the microtiterplate test (Botrci)). Conditions: 31 ppm, 405 nm, 7 days after inoculation; compound-free control 100%.
Assay type: cell-based

Q: `OC(Cn1cncn1)(c1ccc(-c2ccccc2)cc1Cl)C1CC1` (stereo not shown) [Compound I-1] was tested. Which “growth (relative growth in % of the pathogen)” value (“relative growth in %” below) did it give?
A: The value was 0%.

Q: `CC(C)(C)C(O)(Cn1cncn1)c1ccc(-c2ccccc2)cc1Cl` (stereo not shown) [Compound I-7] was tested. Which “relative growth in %” value did it give?
A: Its value is 0%.

Q: How did the “relative growth in %” value turn out when `CC(O)(Cn1cncn1)c1ccc(-c2ccccc2)cc1Cl` (stereo not shown) [Compound I-8] was run?
A: The value was 0%.

Q: For `C=CCCC(O)(Cn1cncn1)c1ccc(-c2ccccc2)cc1Cl` (stereo not shown) [Compound I-9], which “relative growth in %” value is on record?
A: Its value is 0%.

Q: Which “relative growth in %” value does the source give for `CC#CC(O)(Cn1cncn1)c1ccc(-c2ccccc2)cc1Cl` (stereo not shown) [Compound I-10] here?
A: The value was 0%.

Q: For `CCC(O)(Cn1cncn1)c1ccc(-c2ccccc2)cc1Cl` (stereo not shown) [Compound I-13], which “relative growth in %” value is on record?
A: Its value is 0%.

Q: How did the “relative growth in %” value turn out when `CC(F)(F)C(O)(Cn1cncn1)c1ccc(-c2ccccc2)cc1Cl` (stereo not shown) [Compound I-14] was run?
A: Its value is 0%.
